Assay results taken from PMC13335744, “Functional Analysis of Ligand‐Gated Chloride Channels in a Cnidarian Sheds Light on the Evolution of Inhibitory Signaling” (Advanced Science, 2026).

Assays:
nvGluCl‐2 (nvpLGIC‐2) = experiment: Two-electrode voltage clamp of Xenopus oocytes expressing nvGluCl‐2 (nvpLGIC‐2); type: cell-based, Nematostella vectensis
Method: (§1) Approximately 2–5 ng of cRNA of nvpLGICs were injected into Xenopus laevis oocytes of stages V and VI.
(§2) For electrophysiology, whole‐oocyte currents were measured two days after injection using a two‐electrode voltage clamp (TEVC) set‐up with a TurboTec 03X amplifier (npi electronic GmbH, Tamm, Germany) and a pump‐driven solution exchange system combined with the oocyte testing carousel (OTC), controlled by the interface OTC‐20. […] Standard bath solution contained (in mM): 140 NaCl, 10 HEPES, 1.8 CaCl2, and 1.0 MgCl2, pH was adjusted to 7.4 using NaOH. Solution exchange was controlled using the CellWorks 5.1.1 software (npi electronic). Data were sampled at 0.1–1 kHz and filtered at 20 Hz. Holding potential was −70 mV.
(§3) Electrophysiological data were analyzed offline, and current amplitudes were assessed using CellWorks Reader 6.2.2 (npi electronic GmbH, Tamm, Germany). Concentration‐response relationships were normalized to the currents obtained with a saturating concentration (I/Imax ). The mean of normalized amplitudes was plotted as a function of ligand concentrations.
(§4) Desensitization kinetics and recovery from desensitization were fitted to a mono‐exponential function: (2) y=yo+Ae^−x/τ where yo is the offset, A is the amplitude, and τ is the time constant.

nematocytes = system: nematocytes; set-up: method as in PMID 32452384; conditions: cited from earlier work
nvGluCl‐2 K229 mutants = experiment: Two-electrode voltage clamp of oocytes expressing nvGluCl‐2 with substitutions of K229 (K229T, K229R, K229M); type: cell-based, Nematostella vectensis
Source text: Full‐length DNA sequences of […] subunits were identified and cloned based on bulk and single cell transcriptomes of N. vectensis. nvpLGIC‐1 – nvpLGIC‐4 were cloned in oocyte expression vector pRSSP6009 [72]. nvpLGIC‐5 and […] DNA sequences were synthesized and cloned in the pCDNA3.1 (‐) vector (BioCat GmbH). They were then subcloned in the vector pRSSP6009 (nvpLGIC‐6) or pRSSP 6013 (nvpLGIC‐5). Site‐directed mutations were introduced in nvGluCl‐2 to create the mutants at position K229, using the Quick‐change mutagenesis method. nvpLGIC‐1 – nvpLGIC‐6 subunits were fused with His6‐tags at their C‐terminus using PCR. His6‐tags were incorporated just before the stop codon without changing any other amino acids. All final constructs were sequenced for confirmation. […]
For electrophysiology, whole‐oocyte currents were measured two days after injection using a two‐electrode voltage clamp (TEVC) set‐up with a TurboTec 03X amplifier (npi electronic GmbH, Tamm, Germany) and a pump‐driven solution exchange system combined with the oocyte testing carousel (OTC), controlled by the interface OTC‐20. […]

nvpLGIC‐1 – nvpLGIC‐7 = experiment: Ligand screen by two-electrode voltage clamp, nvpLGIC‐1 – nvpLGIC‐7 expressed individually in Xenopus oocytes; type: cell-based, Nematostella vectensis; conditions: for evoked currents: 1 µM–1 mM
Method: Approximately 2–5 ng of cRNA of nvpLGICs were injected into Xenopus laevis oocytes of stages V and VI. Injected oocytes were incubated at 19 °C in oocyte Ringer's solution (OR‐2) containing (in mM): 82.5 NaCl, 2.5 KCl, 1.0 Na2HPO4,1.0 MgCl2, 1.0 CaCl2, 5.0 HEPES, 0.5 g l^−1 PVP, 1000 U l^−1 penicillin, and 10 mg l^−1 streptomycin. pH was adjusted to 7.3 using NaOH.
For electrophysiology, whole‐oocyte currents were measured two days after injection using a two‐electrode voltage clamp (TEVC) set‐up with a TurboTec 03X amplifier (npi electronic GmbH, Tamm, Germany) and a pump‐driven solution exchange system combined with the oocyte testing carousel (OTC), controlled by the interface OTC‐20. For nvGluCl‐1, the His‐tagged version was functionally characterized. Standard bath solution contained (in mM): 140 NaCl, 10 HEPES, 1.8 CaCl2, and 1.0 MgCl2, pH was adjusted to 7.4 using NaOH. Solution exchange was controlled using the CellWorks 5.1.1 software (npi electronic). Data were sampled at 0.1–1 kHz and filtered at 20 Hz. Holding potential was −70 mV.

[1] = target: nvpLGIC-3 (Nematostella vectensis pentameric ligand-gated ion channel subunit 3), C-terminal His6 (Nematostella vectensis); experiment: native gel or EMSA; blue native PAGE of C-terminally His-tagged receptors expressed in Xenopus laevis oocytes, solubilised with digitonin and purified under non-denaturing conditions on Ni-NTA; run native and partially denatured (SDS 1 h at 37°C; methods say LiDS) to count lower-order intermediates; surface pool detected by IR800 fluorescence, total pool by 35S phosphorimaging
nvGluCl‐1 (nvpLGIC‐1) = experiment: Two-electrode voltage clamp of Xenopus oocytes expressing nvGluCl‐1 (nvpLGIC‐1); type: cell-based, Nematostella vectensis
Method: as §1, §2, §3, §4

nvGluCl‐3 (nvpLGIC‐6) = experiment: Two-electrode voltage clamp of Xenopus oocytes expressing nvGluCl‐3 (nvpLGIC‐6); type: cell-based, Nematostella vectensis
Method: as §1, §2, §3, §4

[2] = target: nvpLGIC-5 (Nematostella vectensis pentameric ligand-gated ion channel subunit 5), C-terminal His6 (Nematostella vectensis); experiment: native gel or EMSA; blue native PAGE of C-terminally His-tagged receptors expressed in Xenopus laevis oocytes, solubilised with digitonin and purified under non-denaturing conditions on Ni-NTA; run native and partially denatured (SDS 1 h at 37°C; methods say LiDS) to count lower-order intermediates; surface pool detected by IR800 fluorescence, total pool by 35S phosphorimaging
[3] = target: nvpLGIC-1 (Nematostella vectensis pentameric ligand-gated ion channel subunit 1), C-terminal His6 (Nematostella vectensis); experiment: as above
[4] = target: the molecule itself; experiment: as above
[5] = also with a mix of nvpLGIC‐1 – nvpLGIC‐7, nvpLGIC‐7 not tested individually
[6] = at 500 µM glutamate, single exponential fit
[7] = read-out: EC50, half‐maximal activation, TEVC, holding potential −70 mV

Molecule: picrotoxin [PTx]
- IC50 (nvGluCl‐2 (nvpLGIC‐2); 100 µM glutamate, read-out: apparent IC50, inhibition of glutamate-evoked current): ~10 µM

Molecule: NCCCC(=O)O [GABA, γ‐aminobutyric acid]
- elicited currents (nematocytes): neither Glu nor GABA elicit currents
- activation of K229 mutant channels (nvGluCl‐2 K229 mutants): still not activated
- evoked currents (nvpLGIC‐1 – nvpLGIC‐7): neither GABA nor glycine (1 µM–1 mM) evoked currents

Molecule: NCC(=O)O [glycine]
- evoked currents (nvpLGIC‐1 – nvpLGIC‐7): neither GABA nor glycine (1 µM–1 mM) evoked currents

Molecule: NCCc1c[nH]cn1 [histamine]
- elicited currents (nvpLGIC‐1 – nvpLGIC‐7; [5]): did not elicit currents

Molecule: NCCc1c[nH]c2ccc(O)cc12 [serotonin]
- elicited currents (nvpLGIC‐1 – nvpLGIC‐7; 1 mM): did not elicit currents

Molecule: nvpLGIC-3 (Nematostella vectensis pentameric ligand-gated ion channel subunit 3), C-terminal His6 (receptor)
- stoichiometry N [1]: 5

Molecule: NC(=O)CC[C@H](N)C(=O)O [glutamine]
- elicited currents (nvpLGIC‐1 – nvpLGIC‐7; [5]): did not elicit currents

Molecule: N[C@H](CO)C(=O)O [D‐serine]
- elicited currents (nvpLGIC‐1 – nvpLGIC‐7; 1 mM): did not elicit currents

Molecule: N[C@@H](CCC(=O)O)C(=O)O [glutamate]
- elicited currents (nematocytes): neither Glu nor GABA elicit currents
- evoked currents (nvGluCl‐1 (nvpLGIC‐1); 100 µM): evoked large currents
- time constant of desensitization, τdes (nvGluCl‐1 (nvpLGIC‐1); [6]): 26 ± 3 ms
- EC50 (nvGluCl‐1 (nvpLGIC‐1); read-out: EC50, half‐maximal activation, TEVC, holding potential −70 mV, His‐tagged version): 16 µM
- response to glutamate of K229T, K229R, K229M mutants (nvGluCl‐2 K229 mutants; 10 mM glutamate): almost completely abolished the response
- evoked currents (nvGluCl‐2 (nvpLGIC‐2); 100 µM): evoked large currents
- recovery from desensitization, τrecovery (nvGluCl‐2 (nvpLGIC‐2); 30 s desensitizing pulse of 100 µM glutamate): 31 s
- time constant of desensitization, τdes (nvGluCl‐2 (nvpLGIC‐2); [6]): 111 ± 47 ms
- EC50 (nvGluCl‐2 (nvpLGIC‐2); [7]): 102 µM
- evoked currents (nvGluCl‐3 (nvpLGIC‐6); 100 µM): evoked large currents
- time constant of desensitization, τdes (nvGluCl‐3 (nvpLGIC‐6); [6]): 161 ± 93 ms
- recovery from desensitization, τrecovery (nvGluCl‐3 (nvpLGIC‐6); desensitization by 30 µM glutamate for 30 s): 38 s
- EC50 (nvGluCl‐3 (nvpLGIC‐6); [7]): 7 µM

Molecule: NCCC(=O)O [β‐alanine]
- elicited currents (nvpLGIC‐1 – nvpLGIC‐7; [5]): did not elicit currents

Molecule: CC(=O)OCC[N+](C)(C)C [acetylcholine]
- elicited currents (nematocytes): elicits an inward Ca^2+ current
- elicited currents (nvpLGIC‐1 – nvpLGIC‐7; 1 mM): did not elicit currents

Molecule: N[C@@H](CC(=O)O)C(=O)O [aspartate]
- elicited currents (nvpLGIC‐1 – nvpLGIC‐7; [5]): did not elicit currents

Molecule: nvpLGIC-5 (Nematostella vectensis pentameric ligand-gated ion channel subunit 5), C-terminal His6 (receptor)
- stoichiometry N [2]: 5

Molecule: nvpLGIC-1 (Nematostella vectensis pentameric ligand-gated ion channel subunit 1), C-terminal His6 (receptor)
- stoichiometry N [3]: 5

B1: human GABAA receptor β3 subunit (hGABRB3), His-tagged (receptor, UniProt P28472 26-473, looked up)
chain: QSVNDPGNMSFVKETVDKLLKGYDIRLRPDFGGPPVCVGMNIDIASIDMVSEVNMDYTLTMYFQQYWRDKRLAYSGIPLNLTLDNRVADQLWVPDTYFLNDKKSFVHGVTVKNRMIRLHPDGTVLYGLRITTTAACMMDLRRYPLDEQNCTLEIESYGYTTDDIEFYWRGGDKAVTGVERIELPQFSIVEHRLVSRNVVFATGAYPRLSLSFRLKRNIGYFILQTYMPSILITILSWVSFWINYDASAARVALGITTVLTMTTINTHLRETLPKIPYVKAIDMYLMGCFVFVFLALLEYAFVNYIFFGRGPQRQKKLAEKTAKAKNDRSKSESNRVDAHGNILLTSLEVHNEMNEVSGGIGDTRNSAISFDNSGIQYRKQSMPREGHGRFLGDRSLPHKKTHLRRRSSQLKIKIPDLTDVNAIDRWSRIVFPFTFSLFNLVYWLYYVN
modifications: metabolically labelled with [35S]methionine; surface pool labelled with the lysine-reactive dye IR800-NHS ester
notes: human GABAA receptor subunit β3 (GABRB3), full-length cDNA from the Harvard Plasmid Repository, subcloned into a Gateway-compatible pNKS2 vector; Positive control for homopentamer formation; also called human GABAA β3; human β3 receptor; source: Xenopus laevis oocytes, cRNA-injected; digitonin-solubilised, purified (Ni-NTA); not shown: His tag, C-terminal, kept
- stoichiometry N [4]: 5
